The text below walks through data of patent US7612200B2, “Inhibitors of protein kinases” (Locus Pharmaceuticals, Inc., priority 2004, dated 2009).

Common to all, as to type: biochemical
For one experiment, the target named is TAK1 (Homo sapiens, UniProt O43318). The experiment is described as follows: Protein kinase inhibition, TAK1. The following applies: Rate (μM) 2, read-out: % Control.
The subject of a further experiment is ROCKI. The experiment is described as follows: Protein kinase inhibition, ROCKI (rat). The following applies: Rate (μM) 2.
Another experiment deals with JNK2α2 (Homo sapiens, UniProt P45984). The experiment can be described thus: JNK2α2 Kinase Activity. The method, then:
JNK2α2 Kinase Activity: In a final reaction volume of 25 μl, JNK2α2 (h) (5-10 mU) is incubated with 50 mM Tris pH 7.5, 0.1 mM EGTA, 0.1% β-mercaptoethanol, 3 μM ATF2, 10 mM MgAcetate and [γ-^33P-ATP] (specific activity approx. 500 cpm/pmol, concentration as required). The reaction is initiated by the addition of the MgATP mix. After incubation for 40 minutes at room temperature, the reaction is stopped by the addition of 5 μl of a 3% phosphoric acid solution. 10 μl of the reaction is then spotted onto a P30 filtermat and washed three times for 5 minutes in 75 mM phosphoric acid and once in methanol prior to drying and scintillation counting.

The next experiment concerns the target EphA1 (Homo sapiens, UniProt P21709). The experiment can be described thus: Protein kinase inhibition, EphA1. Particulars: Rate (μM) 2, read-out: % Control.
The target of another experiment is p38γ (Homo sapiens, UniProt P53778). The experiment is described as follows: SAPK3 Kinase Activity (p38γ). The method, then: (§1) SAPK3 Kinase Activity: In a final reaction volume of 25 μl, SAPK3 (h) (5-10 mU) is incubated with 25 mM Tris pH 7.5, 0.02 mM EGTA, 0.33 mg/ml myelin basic protein, 10 mM MgAcetate and [γ-^33P-ATP] (specific activity approx. 500 cpm/®mol, concentration as required). The reaction is initiated by the addition of the MgATP mix. After incubation for 40 minutes at room temperature, the reaction is stopped by the addition of 5 μL of a 3% phosphoric acid solution. 10 μL of the reaction is the spotted onto a P30 filtermat and washed three times for 5 minutes in 75 mM phosphoric acid and once in methanol prior to drying and scintillation counting.

In the next experiment the target is p38δ (Homo sapiens, UniProt O15264). The experiment is described as follows: SAPK4 Kinase Activity (p38δ). The method, then: as §1, with “SAPK4 Kinase” for “SAPK3 Kinase”, “μl, SAPK4” for “μl, SAPK3”, “500 cpm/pmol,” for “500 cpm/®mol,”, “5 μl” for “5 μL”
A further experiment addresses EphA3 (Homo sapiens, UniProt P29320). The experiment can be described thus: Protein kinase inhibition, EphA3. Particulars: Rate (μM) 2, read-out: % Control.

p38δ, sequence (O15264 whole entry): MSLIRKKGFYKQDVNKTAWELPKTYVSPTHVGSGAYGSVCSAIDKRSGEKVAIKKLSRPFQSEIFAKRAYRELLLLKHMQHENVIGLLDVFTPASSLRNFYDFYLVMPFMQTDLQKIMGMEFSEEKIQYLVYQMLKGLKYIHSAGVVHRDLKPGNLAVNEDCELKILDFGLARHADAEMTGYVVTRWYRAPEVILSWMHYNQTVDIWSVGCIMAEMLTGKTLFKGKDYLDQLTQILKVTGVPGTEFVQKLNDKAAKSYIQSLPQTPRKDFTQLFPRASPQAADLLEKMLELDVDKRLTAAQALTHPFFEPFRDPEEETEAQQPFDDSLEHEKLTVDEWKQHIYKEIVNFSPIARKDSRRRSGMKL
JNK2α2, sequence (P45984 whole entry): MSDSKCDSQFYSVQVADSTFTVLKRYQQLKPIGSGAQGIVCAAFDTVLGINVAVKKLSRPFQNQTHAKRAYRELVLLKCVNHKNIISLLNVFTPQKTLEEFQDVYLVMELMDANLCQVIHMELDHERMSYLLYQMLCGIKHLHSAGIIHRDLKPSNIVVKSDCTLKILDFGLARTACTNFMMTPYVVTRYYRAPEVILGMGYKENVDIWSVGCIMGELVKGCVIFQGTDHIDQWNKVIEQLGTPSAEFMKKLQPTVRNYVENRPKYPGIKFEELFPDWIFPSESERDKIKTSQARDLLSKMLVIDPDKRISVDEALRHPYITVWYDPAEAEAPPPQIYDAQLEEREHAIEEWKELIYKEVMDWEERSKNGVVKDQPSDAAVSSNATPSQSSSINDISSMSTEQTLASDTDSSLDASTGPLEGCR
p38γ, sequence (P53778 whole entry): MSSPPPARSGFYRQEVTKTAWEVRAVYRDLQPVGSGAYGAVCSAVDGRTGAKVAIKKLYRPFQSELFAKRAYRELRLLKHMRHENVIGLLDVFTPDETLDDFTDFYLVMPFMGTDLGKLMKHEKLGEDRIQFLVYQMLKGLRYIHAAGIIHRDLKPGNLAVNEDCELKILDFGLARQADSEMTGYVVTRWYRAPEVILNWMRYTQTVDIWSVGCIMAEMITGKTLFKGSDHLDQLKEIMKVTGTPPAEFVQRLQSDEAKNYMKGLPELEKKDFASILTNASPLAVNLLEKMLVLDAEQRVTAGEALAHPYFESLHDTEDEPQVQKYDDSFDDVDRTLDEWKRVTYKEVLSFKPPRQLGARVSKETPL
EphA1, sequence (P21709 26-976): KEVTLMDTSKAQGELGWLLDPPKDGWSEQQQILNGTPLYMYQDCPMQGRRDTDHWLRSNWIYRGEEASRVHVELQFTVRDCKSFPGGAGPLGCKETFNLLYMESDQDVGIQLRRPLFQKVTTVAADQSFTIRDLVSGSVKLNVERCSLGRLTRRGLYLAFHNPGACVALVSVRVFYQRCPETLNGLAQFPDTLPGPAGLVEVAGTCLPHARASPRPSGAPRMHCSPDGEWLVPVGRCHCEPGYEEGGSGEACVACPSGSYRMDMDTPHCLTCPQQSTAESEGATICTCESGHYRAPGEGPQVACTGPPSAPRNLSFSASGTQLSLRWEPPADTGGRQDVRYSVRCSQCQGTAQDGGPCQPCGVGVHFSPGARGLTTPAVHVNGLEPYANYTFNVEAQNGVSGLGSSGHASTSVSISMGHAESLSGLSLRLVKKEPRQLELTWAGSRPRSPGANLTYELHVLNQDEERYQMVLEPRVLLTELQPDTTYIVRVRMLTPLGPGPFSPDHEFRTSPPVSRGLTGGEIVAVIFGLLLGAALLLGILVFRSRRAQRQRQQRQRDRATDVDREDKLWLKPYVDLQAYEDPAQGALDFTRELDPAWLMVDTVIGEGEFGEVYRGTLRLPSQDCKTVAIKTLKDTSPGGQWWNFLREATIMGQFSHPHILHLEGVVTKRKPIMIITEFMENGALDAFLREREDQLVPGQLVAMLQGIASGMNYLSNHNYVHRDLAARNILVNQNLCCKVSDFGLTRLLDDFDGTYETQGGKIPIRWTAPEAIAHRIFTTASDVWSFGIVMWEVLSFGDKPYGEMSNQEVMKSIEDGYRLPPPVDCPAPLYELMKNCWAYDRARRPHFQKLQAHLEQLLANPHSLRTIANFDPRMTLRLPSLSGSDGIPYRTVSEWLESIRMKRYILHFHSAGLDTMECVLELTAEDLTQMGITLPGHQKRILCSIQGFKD
EphA3, sequence (P29320 21-983): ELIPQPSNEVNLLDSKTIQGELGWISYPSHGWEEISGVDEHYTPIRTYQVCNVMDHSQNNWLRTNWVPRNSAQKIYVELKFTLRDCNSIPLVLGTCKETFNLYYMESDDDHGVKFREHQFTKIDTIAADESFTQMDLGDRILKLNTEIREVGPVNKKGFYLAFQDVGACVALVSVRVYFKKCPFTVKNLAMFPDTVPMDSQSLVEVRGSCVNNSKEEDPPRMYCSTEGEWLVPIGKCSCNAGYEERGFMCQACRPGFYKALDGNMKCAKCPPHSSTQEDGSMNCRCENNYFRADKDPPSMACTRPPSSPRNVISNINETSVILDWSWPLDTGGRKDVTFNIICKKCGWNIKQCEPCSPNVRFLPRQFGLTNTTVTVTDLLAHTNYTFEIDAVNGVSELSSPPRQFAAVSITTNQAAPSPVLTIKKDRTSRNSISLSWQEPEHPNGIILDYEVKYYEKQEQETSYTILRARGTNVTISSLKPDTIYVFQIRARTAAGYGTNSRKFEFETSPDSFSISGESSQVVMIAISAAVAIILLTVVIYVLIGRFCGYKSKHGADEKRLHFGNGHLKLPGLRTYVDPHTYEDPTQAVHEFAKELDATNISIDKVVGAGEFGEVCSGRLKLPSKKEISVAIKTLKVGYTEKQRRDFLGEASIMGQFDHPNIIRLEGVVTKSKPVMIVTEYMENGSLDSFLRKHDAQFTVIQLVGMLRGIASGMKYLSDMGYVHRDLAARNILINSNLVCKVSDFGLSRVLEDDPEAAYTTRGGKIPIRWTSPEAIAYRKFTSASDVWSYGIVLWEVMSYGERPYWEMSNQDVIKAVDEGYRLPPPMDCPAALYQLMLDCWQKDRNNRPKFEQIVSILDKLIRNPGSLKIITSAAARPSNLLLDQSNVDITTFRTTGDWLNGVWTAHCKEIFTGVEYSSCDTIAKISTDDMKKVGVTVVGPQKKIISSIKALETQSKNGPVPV
TAK1, sequence (O43318 1-303 limits assumed): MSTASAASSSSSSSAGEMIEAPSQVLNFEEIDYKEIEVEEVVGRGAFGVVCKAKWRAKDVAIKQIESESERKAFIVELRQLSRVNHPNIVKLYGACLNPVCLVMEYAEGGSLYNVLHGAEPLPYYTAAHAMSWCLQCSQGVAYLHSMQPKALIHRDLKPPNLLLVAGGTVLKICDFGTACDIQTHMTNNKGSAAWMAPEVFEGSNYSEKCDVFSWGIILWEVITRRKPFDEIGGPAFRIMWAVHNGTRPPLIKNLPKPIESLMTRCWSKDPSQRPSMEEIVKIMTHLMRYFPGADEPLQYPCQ

Take `CC(C)(C)c1cc(C(=O)N2CCS(=O)(=O)CC2)c(NC(=O)Nc2ccc(Oc3ccncc3)cc2)s1` [Example 3, 1-[5-tert-Butyl-3-(1,1-dioxo-1λ^6-thiomorpholine-4-carbonyl)thiophen-2-yl]-3-[4-(pyridin-4-yloxy)phenyl]urea]: the remaining activity at 2 µM on TAK1 was 76 to 100%; at EphA1 it was 76 to 100%; on p38γ (40 min, P38g, Human, Rate (μM) 2, read-out: % Control), 76 to 100%; at p38δ (40 min, P38d, Human, Rate (μM) 2, read-out: % Control), 76 to 100%; on EphA3, 76 to 100%. Also, the “% inhibition” value in the experiment with ROCKI was 51-75%; on JNK2α2 (JNK2α2, Human, Rate (μM) 2), 26-50%. The “% Inhibition at 2 μm” value on JNK2α2 (JNK2a2, compound at 2 μm) is recorded as 26-50%; at p38γ (p38γ, compound at 2 μm), 76-100%; at p38δ (p38δ, compound at 2 μm), 76-100%.
